Source: US20100069450A1, “SALT OF 3-BENZYL-2-METHYL-2,3,3A,4,5,6,7, 7A- OCTAHYDROBENZO[D]ISOXAZOL-4-ONE” (ABIOGEN PHARMA S.P.A, priority 2006, published 2010)
Counter-ions that a name gives are not always drawn. Like-named read-outs stand apart in the source and are kept apart here.

How the values were obtained:
[1] = system: female CD-1 mice; test: Acute oral toxicity; type: in vivo
Protocol: Acute oral toxicity of salts hydrochloride and fumarate of BTG-1640 was evaluated.
The two salts were dispersed in an aqueous suspension, thus obtaining two formulations, each one orally administered through oesophageous gavage at dose of 2000 mg/kg bw (expressed as free base of BTG 1640) to one of two groups comprising three female CD-1 mice per group.
The observation lasted 14 days.

[2] = Stability test of BTG 1640 salts: evaluation of total impurities; type: physicochemical
Protocol: Contemporaneously, the impurity analysis in the conditions a)-d) of T/% RH were carried out.
As a confirmation of such evidence, a test for the evaluation of the impurity percentage of the sample subjected to the same conditions a)-d) of T/% RH was parallely carried out. The experimental values in Table 4 were obtained.

[3] = Absorption kinetic: plasma concentration of BTG 1640 after oral gavage; type: in vivo, rats Sprague Dawley; conditions: rat, in vivo, po, 10 mg/kg
Protocol: Absorption extent and rate of molecule BTG 1640 in its forms of fumarate and hydrochloride salts were evaluated.
With this intent, the two salts were dispersed in an aqueous suspension of arabic gum at 5% thus obtaining two formulations, each one orally administered through oesophageous gavage at dose of 10 mg/kg (expressed as free base of BTG 1640) to five rats Sprague Dawley.
Plasma concentration of molecule BTG 1640 was determined at different time points.

[4] = Stability test of BTG 1640 salts: purity under preservation conditions; type: physicochemical
Protocol: Samples of 100 mg each of BTG 1640 hydrochloride were subjected to the following preservation conditions:
The purities were then analyzed periodically, initially every three months, in order to underline possible variations.
Samples of 100 mg each of BTG 1640 fumarate prepared according to example 1C were subjected to the following preservation conditions:
Quarterly and in an overall period of nine months its purity was then analyzed in order to underline possible variations. The results in the following Table 3 were obtained:
As comparison other salts of BTG 1640 were prepared, and exactly: • BTG 1640 methanesulphonate • BTG 1640 maleate • BTG 1640 succinate following the procedure indicated in example 1 and substituting methanesolphonic, maleic and succinic acids for fumaric acid.
The stabilities were then evaluated by subjecting samples of 100 mg of each salt to the following analogous preservation conditions:
Quarterly and in an overall period of nine months their purity was then analyzed in order to underline possible variations.
The obtained results, together with those obtained in Example 2 for hydrochloride, in Example 3 for fumarate in order to make easier the comparison, were in Table 5 and represented in FIGS. 5-8.

[5] = female CD-1 mice, oral gavage 2000 mg/kg bw
[6] = T = 25° C., humidity 60% RH, time 0
[7] = T = 25° C., humidity 60% RH, time 3 (months)
[8] = T = 25° C., humidity 60% RH, time 6 (months)
[9] = T = 25° C., humidity 60% RH, time 9 (months)
[10] = T = 30° C., humidity 65% RH, time 0
[11] = T = 30° C., humidity 65% RH, time 3 (months)
[12] = T = 30° C., humidity 65% RH, time 6 (months)
[13] = T = 30° C., humidity 65% RH, time 9 (months)
[14] = T = 40° C., humidity 75% RH, time 0
[15] = T = 40° C., humidity 75% RH, time 3 (months)
[16] = T = 40° C., humidity 75% RH, time 6 (months)

CN1OC2CCCC(=O)C2C1Cc1ccccc1 [BTG 1640 fumarate, fumarate salt of rel-(3R,3aS,7aS)-3-benzyl-2-methyl-2,3,3a,4,5,6,7,7a-octahydrobenzo[d]isoxazol-4-one]
Clinical signs [1, 5]: quickly reversible neurological signs
Histopathological examination of kidneys [1, 5]: only a mild dilatation of convoluted tubules
Toxicity compared with hydrochloride ([1]; female mice, 2000 mg/kg bw): strongly less toxic
% impurities ([2]; T = 5° C., time 0): 0.49%
% impurities ([2]; T = 5° C., time 3 (months)): 0.10%
% impurities ([2]; T = 5° C., time 6 (months)): 0.10%
% impurities ([2]; T = 5° C., time 9 (months)): 0.10%
% impurities [2, 6]: 0.49%
% impurities [2, 7]: 0.10%
% impurities [2, 8]: 0.10%
% impurities [2, 9]: 0.10%
% impurities [2, 10]: 0.49%
% impurities [2, 11]: 0.10%
% impurities [2, 12]: 0.10%
% impurities [2, 13]: 0.10%
% impurities [2, 14]: 0.49%
% impurities [2, 15]: 0.10%
% impurities [2, 16]: 0.10%
Impurities (in words) ([2]; condition d): 40° C./75% RH): invariable impurity profile
concentration at 2 min ([3]; Sprague Dawley): 1070 ng/mL
concentration at 5 min ([3]; Sprague Dawley): 2350 ng/mL
concentration at 30 min ([3]; Sprague Dawley): 838 ng/mL
concentration at 90 min ([3]; Sprague Dawley): 0 ng/mL
concentration at 300 min ([3]; Sprague Dawley): 0 ng/mL
Plasma concentration of free BTG 1640 with respect to hydrochloride [3]: not significantly higher
availability of the active principle in the circulation [3]: more favourable
Stability compared with BTG 1640 hydrochloride [4]: higher stability
Purity % ([4]; T = 5° C., time 0): 99.5%
Purity % ([4]; T = 5° C., time 3 (months)): 100.0%
Purity % ([4]; T = 5° C., time 6 (months)): 100.0%
Purity % ([4]; T = 5° C., time 9 (months)): 99.9%
Purity % [4, 6]: 99.5%
Purity % [4, 7]: 100.0%
Purity % [4, 8]: 100.0%
Purity % [4, 9]: 99.9%
Purity % [4, 10]: 99.5%
Purity % [4, 11]: 100.0%
Purity % [4, 12]: 100.0%
Purity % [4, 13]: 99.9%
Purity % [4, 14]: 99.5%
Purity % [4, 15]: 100.0%
Purity % [4, 16]: 100.0%

CN1OC2CCCC(=O)C2C1Cc1ccccc1.O=C(O)/C=C\C(=O)O (stereo not shown) [BTG 1640 maleate]
% impurities ([2]; T = 5° C., time 0): 0.23%
% impurities ([2]; T = 5° C., time 3 (months)): 0.10%
% impurities ([2]; T = 5° C., time 6 (months)): 0.10%
% impurities ([2]; T = 5° C., time 9 (months)): 0.19%
% impurities [2, 6]: 0.23%
% impurities [2, 7]: 0.22%
% impurities [2, 8]: 0.10%
% impurities [2, 9]: 0.29%
% impurities [2, 10]: 0.23%
% impurities [2, 11]: 0.49%
% impurities [2, 12]: 1.10%
% impurities [2, 13]: 4.20%
% impurities [2, 14]: 0.23%
% impurities [2, 15]: 75.60%
Purity % ([4]; T = 5° C., time 0): 99.8%
Purity % ([4]; T = 5° C., time 3 (months)): 100.0%
Purity % ([4]; T = 5° C., time 6 (months)): 100.0%
Purity % ([4]; T = 5° C., time 9 (months)): 99.8%
Purity % [4, 6]: 99.8%
Purity % [4, 7]: 99.8%
Purity % [4, 8]: 100.0%
Purity % [4, 9]: 99.7%
Purity % [4, 10]: 99.8%
Purity % [4, 11]: 99.5%
Purity % [4, 12]: 98.9%
Purity % [4, 13]: 95.9%
Purity % [4, 14]: 99.8%
Purity % [4, 15]: 24.4%
Degradation (in words) ([4]; condition c) 30° C./65% RH, at sixth month): considerable degradation
Stability (in words) ([4]; condition d): 40° C. and 75% RH): degrades in unacceptable way
Stability profile (in words) ([4]; conditions a) and b)): acceptable profile
Stability compared with BTG 1640 hydrochloride ([4]; conditions a)-d)): even worse

CN1OC2CCCC(=O)C2C1Cc1ccccc1.O=C(O)CCC(=O)O (stereo not shown) [BTG 1640 succinate]
% impurities ([2]; T = 5° C., time 0): 0.77%
% impurities ([2]; T = 5° C., time 3 (months)): 2.00%
% impurities ([2]; T = 5° C., time 6 (months)): 1.90%
% impurities ([2]; T = 5° C., time 9 (months)): 3.20%
% impurities [2, 6]: 0.77%
% impurities [2, 7]: 7.30%
% impurities [2, 8]: 13.00%
% impurities [2, 9]: 9.50%
% impurities [2, 10]: 0.77%
% impurities [2, 11]: 14.60%
% impurities [2, 12]: 28.50%
% impurities [2, 13]: 33.30%
% impurities [2, 14]: 0.77%
% impurities [2, 15]: 83.50%
Purity % ([4]; T = 5° C., time 0): 99.2%
Purity % ([4]; T = 5° C., time 3 (months)): 98.0%
Purity % ([4]; T = 5° C., time 6 (months)): 98.1%
Purity % ([4]; T = 5° C., time 9 (months)): 96.8%
Purity % [4, 6]: 99.2%
Purity % [4, 7]: 92.7%
Purity % [4, 8]: 87.0%
Purity % [4, 9]: 90.5%
Purity % [4, 10]: 99.2%
Purity % [4, 11]: 85.4%
Purity % [4, 12]: 71.5%
Purity % [4, 13]: 66.8%
Purity % [4, 14]: 99.2%
Purity % [4, 15]: 16.5%
Stability compared with BTG 1640 hydrochloride ([4]; conditions a)-d)): even worse
Degradation (in words) ([4]; conditions a)-d), from the third month): shows degradation at all observation conditions

CN1OC2CCCC(=O)C2C1Cc1ccccc1.CS(=O)(=O)O (stereo not shown) [BTG 1640 methanesulphonate]
% impurities ([2]; T = 5° C., time 0): 0.42%
% impurities ([2]; T = 5° C., time 3 (months)): 0.55%
% impurities ([2]; T = 5° C., time 6 (months)): 0.74%
% impurities ([2]; T = 5° C., time 9 (months)): 0.91%
% impurities [2, 6]: 0.42%
% impurities [2, 7]: 1.80%
% impurities [2, 8]: 2.90%
% impurities [2, 9]: 5.00%
% impurities [2, 10]: 0.42%
% impurities [2, 11]: 4.00%
% impurities [2, 12]: 13.20%
% impurities [2, 13]: 25.80%
% impurities [2, 14]: 0.42%
% impurities [2, 15]: 18.50%
% impurities [2, 16]: 94.30%
Purity % ([4]; T = 5° C., time 0): 99.6%
Purity % ([4]; T = 5° C., time 3 (months)): 99.5%
Purity % ([4]; T = 5° C., time 6 (months)): 99.3%
Purity % ([4]; T = 5° C., time 9 (months)): 99.1%
Purity % [4, 6]: 99.6%
Purity % [4, 7]: 98.2%
Purity % [4, 8]: 97.1%
Purity % [4, 9]: 95.0%
Purity % [4, 10]: 99.6%
Purity % [4, 11]: 96.0%
Purity % [4, 12]: 86.8%
Purity % [4, 13]: 74.2%
Purity % [4, 14]: 99.6%
Purity % [4, 15]: 81.5%
Purity % [4, 16]: 5.7%
Stability compared with BTG 1640 hydrochloride ([4]; conditions a)-d)): even worse
Degradation (in words) ([4]; conditions b)-d)): begins to degrade already after three months
